Assay results: ChEMBL document CHEMBL5247589, “Natural occurrence, bioactivity, and biosynthesis of triene-ansamycins” (Eur J Med Chem, 2022)
Values after ≈ are worked out from the molar mass of the structure shown. Blank lines part the entries; values can stand above or below the compound they belong to.

Key:
[1] = test system: SW1990; experiment: Antitumor activity against human SW1990 cells assessed as cell growth inhibition incubated for 48 hrs by CCK-8 assay; type: functional, cell-based; conditions: SW1990, 48 h
[2] = test system: PANC-1; experiment: Antitumor activity against human PANC-1 cells assessed as cell growth inhibition incubated for 48 hrs by CCK-8 assay; type: functional, cell-based; conditions: PANC-1, 48 h
[3] = test system: HeLa; experiment: Antitumor activity against human HeLa cells assessed as cell growth inhibition incubated for 72 hrs by MTT assay; type: functional, cell-based
[4] = test system: NCI-H1299; experiment: Antiproliferative activity against human H1299 cells incubated for 72 hrs by absorbance based assay; type: functional, cell-based; conditions: NCI-H1299, 72 h
[5] = test system: HeLa; experiment: Antiproliferative activity against human HeLa cells incubated for 72 hrs by absorbance based assay; type: functional, cell-based
[6] = test system: PANC-1; experiment: Antitumor activity against human PANC-1; type: functional, cell-based; conditions: pooled result: one value given for 3 cell lines, strains, targets or settings
[7] = test system: L5178Y; experiment: Cytotoxicity against mouse L5178Y; type: toxicity, cell-based
[8] = test system: C-33-A; experiment: Antitumor activity against human C33A cells assessed as cell growth inhibition incubated for 3 days; type: functional, cell-based; conditions: 72 h
[9] = test system: COLO 201; experiment: Antitumor activity against human COL0201 cells assessed as cell growth inhibition incubated for 3 days; type: functional, cell-based; conditions: COLO 201, 72 h
[10] = test system: HeLa; experiment: Antitumor activity against human HeLa cells assessed as cell growth inhibition incubated for 3 days; type: functional, cell-based; conditions: 72 h
[11] = test system: MCF7; experiment: Antitumor activity against human MCF7 cells assessed as cell growth inhibition incubated for 3 days; type: functional, cell-based; conditions: MCF7, 72 h
[12] = test system: BXPC-3; experiment: Antitumor activity against human BXPC-3 cells incubated for 48 to 72 hrs by MTS Assay; type: functional, cell-based
[13] = test system: PANC-1; experiment: Antitumor activity against human PANC-1 cells incubated for 48 to 72 hrs by MTS Assay; type: functional, cell-based
[14] = test system: Capan-2; experiment: Antitumor activity against human Capan-2 cells incubated for 48 to 72 hrs by MTS Assay; type: functional, cell-based

IC50 [1]: > 10 µM
IC50 [2]: > 10 µM
Compound: CO[C@@H]1CC(=O)Nc2c(O)c3cc4c2[C@H](/C=C/C=C/C[C@H](OC(=O)[C@@H](C)NC(=O)C2=CCCCC2)[C@H](C)[C@@H](O)/C(C)=C\CC3)[C@H]1O4

IC50 [3]: 0.1 µM
Compound: CO[C@H]1/C=C/C=C/C=C/C[C@H](OC(=O)[C@@H](C)NC(=O)C2CCCCC2)[C@H](C)[C@@H](O)/C(C)=C\CCC2=CC(=O)C(SC)=C(NC(=O)C1)C2=O

IC50 [3]: > 10 µM
Compound: CO[C@H]1/C=C/C=C/C=C/C[C@H](OC(=O)[C@@H](C)NC(=O)C2CCCCC2)[C@H](C)C(=O)/C(C)=C\CCC2=CC(=O)C=C(NC(=O)C1)C2=O

IC50 [6]: 0.17 µM
Compound: CO[C@H]1/C=C/C=C/C=C/C[C@H](OC(=O)[C@@H](C)NC(=O)CCC(C)C)[C@H](C)[C@@H](O)/C(C)=C\CCc2cc(O)cc(c2)NC(=O)C1

IC50 [4]: > 10 µM
IC50 [5]: 10 µM
Compound: CO[C@H]1/C=C/C=C/C=C/C[C@@H]2O[C@@](C)([C@H](O)[C@H]2C)[C@H]2CCC3=C(S2)C(=O)C=C(NC(=O)C1)C3=O

IC50 [3]: 0.055 µM
Compound: CO[C@H]1/C=C/C=C/C=C/C[C@H](OC(=O)[C@@H](C)NC(=O)C2CCCCC2)[C@H](C)[C@@H](O)/C(C)=C\CCC2=C(SC)C(=O)C=C(NC(=O)C1)C2=O

IC50 [1]: 3.99 µM
IC50 [2]: 3.99 µM
Compound: CO[C@@H]1CC(=O)Nc2c(O)c3cc4c2[C@H](/C=C/C=C/C[C@H](OC(=O)[C@@H](C)NC(=O)C2CCCCC2)[C@H](C)[C@@H](O)/C(C)=C\CC3)[C@H]1O4

IC50 [4]: > 10 µM
IC50 [5]: 10 µM
Compound: CO[C@@H]1CC(=O)N2c3cc(O)cc4c3O[C@@H](/C=C/C=C/C[C@H](O)[C@H](C)[C@@H](O)/C(C)=C\CC4)[C@@H]12

IC50 [6]: 0.035 µM
Compound: CO[C@H]1/C=C/C=C/C=C/C[C@H](OC(=O)[C@@H](C)NC(=O)C2=CCCCC2)[C@H](C)[C@@H](O)/C(C)=C\CCc2cc(O)cc(c2)NC(=O)C1

IC50 [3]: > 10 µM
Compound: C/C1=C/CCc2cc(O)cc(c2)NC(=O)C[C@@H](O)/C=C/C=C/C=C/C[C@H](O)C[C@H]1O

IC50 [9]: 0.028 µM
IC50 [10]: 0.028 µM
IC50 [11]: 0.028 µM
Compound: CO[C@H]1/C=C/C=C/C=C/C[C@H](OC(=O)[C@@H](C)NC(=O)C2=CCCCC2)[C@H](C)[C@@H](O)/C(C)=C\CCc2c(O)c(cc3c2SCC(=O)N3)NC(=O)C1
IC50 [8]: 0.028 µM

IC50 [12]: ≥ 10 µM
IC50 [13]: ≥ 10 µM
Compound: C/C=C(\C)C(=O)N[C@H](C)C(=O)O[C@H]1C/C=C/C=C/C=C/[C@H](OC)CC(=O)Nc2cc(O)cc(c2)CC/C=C(/C)[C@H](O)[C@H]1C
IC50 [14]: ≥ 10 µM

IC50 [1]: 5.81 µM
IC50 [2]: 5.81 µM
Compound: CO[C@@H]1CC(=O)Nc2c(O)c3cc4c2[C@@H](/C=C/C=C/C[C@H](OC(=O)[C@@H](C)NC(=O)C2CCCCC2)[C@H](C)[C@@H](O)/C(C)=C\CC3)[C@@H]1O4

More lines, now with the values behind:

Compound: C/C1=C/CCc2cc(O)cc(c2)NC(=O)C[C@@H](O)/C=C/C=C/C=C/C[C@H](O)[C@H](C)[C@H]1O
IC50 [4]: > 10 µM
IC50 [5]: 10 µM

Compound: CO[C@H]1/C=C/C=C/C=C/C[C@H](OC(=O)[C@@H](C)NC(=O)C2CCCCC2)[C@H](C)[C@@H](O)/C=C\CCc2cc(O)cc(c2)NC(=O)C1
IC50 [3]: 0.86 µM

Compound: CO[C@@H]1CC(=O)N2c3cc(O)cc4c3O[C@H](/C=C/C=C/C[C@H](O)[C@H](C)[C@@H](O)/C(C)=C\CC4)[C@H]12
IC50 [4]: > 10 µM
IC50 [5]: 10 µM

Compound: COc1cc2c(O)c(c1)NC(=O)C[C@@H](OC)/C=C/C=C/C=C/C[C@H](OC(=O)[C@@H](C)NC(=O)C1CCCCC1)[C@H](C)[C@@H](O)/C(C)=C\CC2
MIC [7]: 0.17 µM (≈ 0.111 µg/mL)

Compound: CO[C@H]1/C=C/C=C/C=C/C[C@H](OC(=O)[C@@H](C)NC(=O)C2CCCCC2)[C@H](C)C(=O)/C(C)=C\CCc2cc(O)cc(c2O)NC(=O)C1
IC50 [3]: > 10 µM

Compound: CO[C@H]1/C=C/C=C/C=C/C[C@H](OC(=O)[C@@H](C)NC(=O)C2CCCC(O)C2)[C@H](C)[C@@H](O)/C(C)=C\CCc2cc(O)cc(c2O)NC(=O)C1 (stereo not given in full)
MIC [7]: 4.89 µM (≈ 3.2 µg/mL)

Compound: CO[C@H]1/C=C/C=C/C=C/C[C@H](OC(=O)[C@@H](C)NC(=O)C2CCCCC2)[C@H](C)[C@@H](O)/C(C)=C\CCc2c(O)c(cc(O)c2SC)NC(=O)C1
IC50 [3]: 0.2 µM

Compound: CO[C@@H]1CC(=O)Nc2c(O)c3cc4c2[C@H](/C=C/C=C/C[C@H](OC(=O)[C@@H](C)NC(=O)CC(C)C)[C@H](C)[C@@H](O)/C(C)=C\CC3)[C@H]1O4
IC50 [1]: > 10 µM
IC50 [2]: > 10 µM

Compound: CO[C@H]1/C=C/C=C/C=C/C[C@H](OC(=O)[C@@H](C)NC(=O)C2CCCCC2)[C@H](C)[C@@H](O)/C(C)=C\CCc2cc(O[C@@H]3O[C@H](CO)[C@@H](O)[C@H](O)[C@H]3O)cc(c2O)NC(=O)C1
MIC [7]: 1 µM (≈ 0.801 µg/mL)
